Results published in patent publication US20240041042A1, “1-(PYRIDYL)-5-AZINYLPYRAZOLE DERIVATIVES, AND THEIR USE FOR CONTROL OF UNDESIRED PLANT GROWTH” (Bayer Aktiengesellschaft, priority 2020, published 2024).

Legend:
Type in all cases: in vivo
[1] = system: Matricaria inodora (MATIN); assay: Pre-emergence herbicidal action against MATIN; settings: dosage 320 g/ha
Method in brief: (§1)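 Greenhouse pot trial: seeds sown, soil-covered, sprayed before emergence with compound in water (0.5% additive; 600 l/ha; ≤320 g/ha). Scoring visual, ~3 weeks, 0–100% scale vs untreated.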

Setaria viridis (SETVI) [2] = assay: Post-emergence herbicidal action against SETVI
Method in brief: (§2)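 Post-emergence greenhouse spray, one-leaf stage, 600 l/ha water plus 0.5% additive; WP or EC formulations; application rates 320 g/ha or lower. Visual % damage vs untreated controls at ~3 weeks.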

[3] = system: Alopecurus myosuroides (ALOMY); assay: Post-emergence herbicidal action against ALOMY; settings: 320 g/ha, visual rating about 3 weeks after treatment vs untreated controls (100% = plants have died, 0% = like control plants)
Method in brief: as §2

[4] = system: Amaranthus retroflexus (AMARE); assay: Pre-emergence herbicidal action against AMARE; settings: visual scoring after about 3 weeks vs untreated controls
Method in brief: as §1

[5] = system: Amaranthus retroflexus (AMARE); assay: Post-emergence herbicidal action against AMARE
Method in brief: as §2

Zea mays (ZEAMX) [6] = settings: pre-emergence, 80 g/ha, crop plant compatibility, in comparison to untreated controls
Text: Seeds of monocotyledonous and dicotyledonous weed plants and crop plants are placed in plastic or organic planting pots and covered with soil. The compounds of the invention, formulated in the form of wettable powders (WP) or as emulsion concentrates (EC), are then applied to the surface of the covering soil as aqueous suspension or emulsion with addition of 0.5% additive at a water application rate equivalent to 600 l/ha. After the treatment, the pots are placed in a greenhouse and kept under good growth conditions for the trial plants. After about 3 weeks, the effect of the preparations is scored visually in comparison with untreated controls as percentages. For example, 100% activity=the plants have died, 0% activity=like control plants.
The observed effects on selected crop plants are reported here in comparison to the untreated controls (values in %). The appendices “a” “b” and “c” give differentiation by dosage used with otherwise the same crop plants tested.

[7] = system: Polygonum convolvulus (POLCO); assay: Post-emergence herbicidal action against POLCO; settings: dosage 320 g/ha
Method in brief: as §2

[8] = system: Echinochloa crus-galli (ECHCG); assay: Pre-emergence herbicidal action against ECHCG; settings: dosage 320 g/ha
Method in brief: as §1

Viola tricolor (VIOTR) = assay: Post-emergence herbicidal action against VIOTR
Method in brief: as §2

[9] = system: Verconica persica (VERPE); assay: Post-emergence herbicidal action against VERPE; settings: 320 g/ha, VERPE
Method in brief: as §2

Lolium rigidum (LOLRI) = assay: Post-emergence herbicidal action against LOLRI; settings: dosage 320 g/ha
Method in brief: as §2

[10] = system: Echinochloa crus-galli (ECHCG); assay: Post-emergence herbicidal action against ECHCG; settings: dosage 320 g/ha
Method in brief: as §2

[11] = system: Matricaria inodora (MATIN); assay: Post-emergence herbicidal action against MATIN
Method in brief: as §2

Setaria viridis (SETVI) [12] = assay: Pre-emergence herbicidal action against SETVI; settings: dosage 320 g/ha
Method in brief: as §1

[13] = system: Polygonum convolvulus (POLCO); assay: Pre-emergence herbicidal action against POLCO; settings: dosage 320 g/ha
Method in brief: as §1

[14] = system: Triticum aestivum (TRZAS); settings: crop plant compatibility, 80 g/ha, effect vs untreated controls
Method in brief: (§3)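 One-leaf-stage crops (2–3 wk post-sowing, sandy loam, greenhouse) sprayed on green parts; 0.5% additive, 600 l/ha water. Rated by eye ~3 wk later, % vs untreated; suffixes a/b/c mark different dosages.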

Zea mays (ZEAMX) [15] = settings: crop plant compatibility, 80 g/ha, effect vs untreated controls
Method in brief: as §3

Avena fatua (AVEFA) = assay: Post-emergence herbicidal action against AVEFA; settings: 320 g/ha, visual rating about 3 weeks after treatment
Method in brief: as §2

[16] = system: Alopecurus myosuroides (ALOMY); assay: Pre-emergence herbicidal action against ALOMY; settings: 320 g/ha; scored visually after about 3 weeks; 100% = plants have died
Method in brief: as §1

[17] = system: Pharbitis purpurea (PHBPU); assay: Post-emergence herbicidal action against PHBPU; settings: dosage 320 g/ha
Method in brief: as §2

CCOC(=O)COc1nn(-c2ncccc2F)c(-c2ccc(F)nc2)c1F [Example I-354]
90%: Pre-emergence action against MATIN in % [1] | Post-emergence action against ALOMY in % [3] | Pre-emergence action against AMARE in % ([4]; 320 g/ha) | Post-emergence action against VERPE in % [9] | Post-emergence action against LOLRI in % (Lolium rigidum (LOLRI)) | Pre-emergence action against SETVI in % (Setaria viridis (SETVI) [12]) | Post-emergence action against PHBPU in % [17]
100%: Pre-emergence action against ECHCG in % [8] | Post-emergence action against ECHCG in % [10]
80%: Post-emergence action against SETVI in % (Setaria viridis (SETVI) [2]; dosage 80 g/ha) | Post-emergence action against SETVI in % (Setaria viridis (SETVI) [2]; dosage 320 g/ha) | Pre-emergence action against AMARE in % ([4]; 80 g/ha) | Post-emergence action against AMARE in % ([5]; 80 g/ha, visual rating about 3 weeks after treatment vs untreated controls (100% = plants have died, 0% = like control plants)) | Post-emergence action against AMARE in % ([5]; 320 g/ha, visual rating about 3 weeks after treatment) | Post-emergence action against POLCO in % [7] | Post-emergence action against VIOTR in % (Viola tricolor (VIOTR); 80 g/ha) | Post-emergence action against VIOTR in % (Viola tricolor (VIOTR); 320 g/ha) | Post-emergence action against MATIN in % ([11]; dosage 80 g/ha) | Post-emergence action against MATIN in % ([11]; dosage 320 g/ha) | Pre-emergence action against POLCO in % [13] | Post-emergence action against AVEFA in % (Avena fatua (AVEFA)) | Pre-emergence action against ALOMY [16]
0%: Pre-emergence action against ZEAMX in % (Zea mays (ZEAMX) [6]) | Post-emergence action against TRZAS in % [14] | Post-emergence action against ZEAMX in % (Zea mays (ZEAMX) [15])
